Bridge positions count the residues as written; N and C are the ends. Peptide text beside a SMILES is read from it.
Key:
mTEAD4 = target: T1, mTEAD4 (Mus musculus, UniProt Q62296); assay: SPR binding to immobilised mTEAD4; details: mTEAD4 amine-coupled on CM5, multi-cycle, steady-state fit 1:1 model, 10 mM HEPES 150 mM NaCl 0.05% Tween-20 pH 7.4, 0.3% DMSO, 20 °C, Fig. 1 values n = 1 replicate
T1 construct: Mouse TEAD4(210–427) cDNA fused with a 6x His-tag and a 3C protease cleavage site; 6x His-tag; 3C protease cleavage site; made in house; host or cells: E. coli BL21 DE3 RIL(K+)
Summary of the method: (§1)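 Proteins amine-coupled (NHS/EDC) to CM5 chips from 10 mM MES pH 6.4; running buffer 10 mM HEPES, 150 mM NaCl, 0.05% Tween-20, pH 7.4, 20 °C, 30 µL min^−1. Multi-cycle kinetics: seven threefold analyte dilutions from 30 µM, 45 s contact, 6-min dissociation, reference-surface subtracted.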

GST-hTEAD1 = target: T2, GST-hTEAD1 (Homo sapiens, UniProt P28347); assay: SPR binding to immobilised GST-hTEAD1; details: GST-hTEAD1 amine-coupled on CM5, multi-cycle, steady-state fit 1:1 model, 10 mM HEPES 150 mM NaCl 0.05% Tween-20 pH 7.4, 0.3% DMSO, 20 °C, Fig. 1 values n = 1 replicate
T2 construct: CDNA of hTEAD1(209–426) fused with an N-terminal GST tag; made in house; host or cells: Escherichia coli BL21 DE3 RIL(K+)
Summary of the method: as §1

GST-hTEAD1 / biotin-VGL4 = target: T3, GST-hTEAD1 / biotin-VGL4 (Homo sapiens, UniProt P28347); assay: Competition pull-down of GST-hTEAD1 with immobilised biotin-VGL4; assay type: biochemical; details: GST-hTEAD1 1 µM, peptide 50 and 200 µM, biotin-VGL4 on streptavidin beads, 2.5 h, SDS-PAGE, n = 1
T3 construct: CDNA of hTEAD1(209–426) fused with an N-terminal GST tag; made in house; host or cells: Escherichia coli BL21 DE3 RIL(K+); bait peptide synthetic
Description: Beads were then extensively washed with the incubation buffer followed by protein elution after boiling the beads at 95 °C for 10 min in 25 µL of SDS loading buffer. SDS PAGE was performed using standard methods and the gel was visualized after Coomassie staining with a Li-COR Fc Imager.

RKO cells [1] = assay: Wound closure assay; assay type: cell-based; details: c = 30 µM, 48 h treatment
Description: Ca. 100,000 RKO cells were seeded per well in a transparent ImageLock 96-well plate (#4379, Essen Bioscience) and treated with the samples the next day. Wound Healing Assay was performed using the IncuCyte® ZOOM system and the WoundMaker™ device (both Essen Bioscience). The scratch was performed according to manufacturer’s protocol and images were acquired every 2 h. Image-based analysis of wound closure was conducted using the IncuCyte ZOOM 2016B software (Essen Bioscience). Confluency within the wound area was normalized to the confluency at the time of scratch preparation and plotted using GraphPad Prism 6.

[2] = system: primary juvenile (P5–P6) rat cardiomyocytes; assay: Cell cycle activity assay (Ki67/αActinin) in juvenile rat cardiomyocytes; assay type: cell-based
Description: One day after seeding, the cells were treated with test compounds of interest. Treatments were applied with an ECHO 520 acoustic dispenser (Labcyte) and medium was added to the wells. Four days after treatment, the cells were fixed with 4% formaldehyde (Roth) and immunostained in 0.2% Triton-X100 (Roth) in PBS (Gibco) supplemented with 5% FBS. […] Samples were then imaged and analysed on an ImageXpress XL automated microscope (Molecular Devices). Data are depicted as means ± SEM.

rat heart cells = assay: Cell toxicity assessment on rat heart cells in culture; details: c(peptide) = 10 µM
Description: whole heart cells monitored by fluorescence microscopy after 90 minutes treatments (scale bar: 25 µm), number of […]
4E as well as control compounds (SB203580, CHIR99021) on rat heart cells in culture (c(peptide) = 10 µM). Number of independent biological replicates: n = 6, error bars = SEM. […]
cytometry analysis of live cells after 90 min incubation at 5 µM: Representative histogram plot, (-) DMSO control). Source data are provided as a Source Data file.
(1 picture or pasted object on this page, not shown here)

RKO cells [3] = assay: Sub-cellular (cytoplasmic, nuclear) peptide concentration in RKO cells by UPLC-MS; details: for Sub-cellular drug content, Cytoplasm, Measured concentration / Sub-cellular drug content, Cytoplasm, nMol / Sub-cellular drug content, Nuclear, Measured concentration / Sub-cellular drug content, Nuclear, nMol / Sub-cellular drug content, Cytoplasm, pMol.mg-1 / Sub-cellular drug content, Nuclear, pMol.mg-1: 25 µM compound, n = 2; for Sub-cellular drug content, Cytoplasm, pMol.mg-1 / Sub-cellular drug content, Nuclear, pMol.mg-1: per mg protein; for Cytoplasmic concentration of peptide: cytoplasmic fraction; for Nuclear concentration of peptide: nuclear fraction; for Cytoplasmic concentration, raw data / Nuclear concentration, raw data: sheet Figure 3c, 25 µM unlabelled peptide; for Intracellular concentration: mass spectrometry
Description: Peptides were incubated in RKO cells (ATCC, #CRL-2577) as follows: Experiment 1: RKO cells were incubated in 25 µM compound for 90 min and 24 h. Experiment 2: RKO cells were incubated in 25 µM for 30 min or 72 h. Following peptide incubation, the cells were washed twice with PBS, trypsinized and pelleted. The pellets were lysed in RIPA buffer (Perkin Elmer) for total lysis, or CelLytic NuCLEAR Extraction Kit (SIGMA) for subcellular fractionation. Total protein quantification BCA (Pierce) was performed prior to MS analysis to normalize sample data. Total and fractionated cell lysates were analysed by quantitative UPLC-MS utilizing a Waters Xevo TQ-XS (WBA0259) and an Acquity UPLC system from Waters consisting of Sample Manager (M16UFL953M), Acquity PDA (F17UPD457A), Column Oven (E17CMP703G) and Binary Solvent Manager (E17BUR621G). […] Chromatograms of the samples were treated similarly, and by linear regression (1/x) an in-cell concentration was established in the re-suspended cell lysate using the Waters MassLynx TargetLynx^TM product.

[4] = 90 minutes, fractionation, UPLC-MS
[5] = 24 hours, fractionation, UPLC-MS

T3 sequence (P28347 209-426): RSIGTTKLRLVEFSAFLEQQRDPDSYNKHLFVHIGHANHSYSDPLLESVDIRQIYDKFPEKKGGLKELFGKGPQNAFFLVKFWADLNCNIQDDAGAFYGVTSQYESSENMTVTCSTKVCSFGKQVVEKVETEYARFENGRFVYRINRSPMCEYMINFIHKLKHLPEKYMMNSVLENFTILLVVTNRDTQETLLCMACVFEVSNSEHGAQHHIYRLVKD
T2 sequence (P28347 209-426): as above
T1 sequence (Q62296 210-427): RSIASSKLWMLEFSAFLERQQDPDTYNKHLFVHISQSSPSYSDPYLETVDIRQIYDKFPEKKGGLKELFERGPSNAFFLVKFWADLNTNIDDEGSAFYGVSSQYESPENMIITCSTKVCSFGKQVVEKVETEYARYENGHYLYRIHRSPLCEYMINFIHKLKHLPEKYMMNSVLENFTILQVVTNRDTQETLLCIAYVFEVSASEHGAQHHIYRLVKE

Kd (mTEAD4): 1200 nM
Kd (GST-hTEAD1): 700 nM
Competition with TEAD–VGL4 complex formation (pull-down) (GST-hTEAD1 / biotin-VGL4): compete with TEAD–VGL4 complex formation
Sub-cellular drug content, Cytoplasm, Measured concentration (RKO cells [3]; [4]): < LLOQ
Sub-cellular drug content, Cytoplasm, nMol (RKO cells [3]; [4]): < LLOQ
Sub-cellular drug content, Nuclear, Measured concentration (RKO cells [3]; [4]): < LLOQ
Sub-cellular drug content, Nuclear, nMol (RKO cells [3]; [4]): < LLOQ
Sub-cellular drug content, Cytoplasm, pMol.mg-1 (RKO cells [3]; [4]): < LLOQ
Sub-cellular drug content, Nuclear, pMol.mg-1 (RKO cells [3]; [4]): < LLOQ
Sub-cellular drug content, Cytoplasm, Measured concentration (RKO cells [3]; [5]): < LLOQ
Sub-cellular drug content, Cytoplasm, nMol (RKO cells [3]; [5]): < LLOQ
Sub-cellular drug content, Nuclear, Measured concentration (RKO cells [3]; [5]): < LLOQ
Sub-cellular drug content, Nuclear, nMol (RKO cells [3]; [5]): < LLOQ
Sub-cellular drug content, Cytoplasm, pMol.mg-1 (RKO cells [3]; [5]): < LLOQ
Sub-cellular drug content, Nuclear, pMol.mg-1 (RKO cells [3]; [5]): < LLOQ
Cytoplasmic concentration of peptide (RKO cells [3]; UPLC-MS, raw data replicate 1): <LLOQ
Cytoplasmic concentration of peptide (RKO cells [3]; UPLC-MS, raw data replicate 2): <LLOQ
Nuclear concentration of peptide (RKO cells [3]; UPLC-MS, raw data replicate 1): <LLOQ
Nuclear concentration of peptide (RKO cells [3]; UPLC-MS, raw data replicate 2): <LLOQ
Cytoplasmic concentration, raw data (RKO cells [3]; UPLC-MS, replicate 1): <LLOQ
Nuclear concentration, raw data (RKO cells [3]; UPLC-MS, replicate 1): <LLOQ
Cytoplasmic concentration, raw data (RKO cells [3]; UPLC-MS, replicate 2): <LLOQ
Nuclear concentration, raw data (RKO cells [3]; UPLC-MS, replicate 2): <LLOQ
Detection in cytoplasmic and nuclear fractions (RKO cells [3]; unlabelled peptide 25 µM, 90 min and 24 h, fractionation, UPLC-MS): not detected in subcellular fractions
Intracellular concentration (RKO cells [3]; unlabelled peptide 25 µM, 90 min incubation, n = 2 biological replicates): < LLOQ
Intracellular concentration (RKO cells [3]; unlabelled peptide 25 µM, 24 hours incubation, N = 2 biological replicates): < LLOQ
SMILES: CC[C@H](C)[C@@H]1NC(=O)[C@H](CCC(N)=O)NC(=O)[C@H](CC(C)C)NC(=O)[C@H](Cc2c[nH]c3ccccc23)NC(=O)[C@H]([C@@H](C)O)NC(=O)[C@H](CC(=O)O)NC(=O)CNC(=O)[C@H](CC(C)C)NC(=O)[C@H](C)NC(=O)[C@H](CCCCN)NC(=O)[C@H](C)NC(=O)[C@H](Cc2ccccc2)NC(=O)[C@H](Cc2c[nH]cn2)NC(=O)[C@H](CC(=O)O)NC(=O)[C@@H](NC(=O)[C@@H](NC(=O)[C@H](CO)NC(C)=O)C(C)C)CCC(=O)NCCCC[C@@H](C(=O)N[C@@H](C)C(=O)N[C@@H](C)C(N)=O)NC1=O [4E] (Ac-SVEDHFAKALGDTWLQIKAA-NH2; lactam 3-18)
Effect on wound closure (RKO cells [1]): no effect
Effect on cardiomyocyte cell cycle activity ([2]; P5–P6 rat heart cells, 4-days incubation, Ki67/αActinin double-positive cells): has no effect
Cell cycle activity, MEAN ([2]; c = 10 µM, 4 days, relative to DMSO-treated cells (100), mean of N = 6): 92.7542
Total cell number (% DMSO control) (rat heart cells; raw data replicate 1): 98.8636 % DMSO control
Total cell number (% DMSO control) (rat heart cells; raw data replicate 2): 123.588 % DMSO control
Total cell number (% DMSO control) (rat heart cells; raw data replicate 3): 109.739 % DMSO control
Total cell number (% DMSO control) (rat heart cells; raw data replicate 4): 95.1959 % DMSO control
Total cell number (% DMSO control) (rat heart cells; raw data replicate 5): 66.1379 % DMSO control
Total cell number (% DMSO control) (rat heart cells; raw data replicate 6): 63.0015 % DMSO control

Source: publication PMC7591920, “A protein tertiary structure mimetic modulator of the Hippo signalling pathway” (Nature Communications, 2020)
